Data set [1] has as its system human Mo-DCs. Also on record: key: (−) negligible; (+) low; (++) moderate; (+++) high. As to conditions: Vit D3-treated and LPS-induced DCs; data from Heitger (2011); cited from earlier work.
The subject of data set [2] is human Mo-DCs. The data set can be described thus: Flow cytometry of cell surface markers on treated, LPS-matured Mo-DCs. Also on record: key to HLA-DR / CD40 / CD83 / CD86 / CD14 / CD1a / CCR7: (−) negligible; (+) low; (++) moderate; (+++) high. Particulars: surface marker; treated and LPS-induced DCs. In kind it is cell-based. Here is the method:
Peripheral blood mononuclear cells (PBMCs) were obtained from buffy coat preparations belonging to healthy donors from the Blood and Tissue Bank (Barcelona, Spain) after Ficoll-Paque™ density centrifugation (GE Healthcare Bio-Sciences AB; Uppsala, Sweden). Monocytes were purified by two different methods: 1) Cells were plated at 1×10^6 cells/ml in 60 mm culture plates (Corning, Spain) in RPMI without serum and allowed to adhere for 2 h at 37° C. in 5% CO2. The non-adherent cells were removed by washing in PBS. […] 2) Cells were purified using colloidal super-paramagnetic microbeads conjugated with monoclonal mouse anti-human CD14 antibodies (MACS, Miltenyi Biotec, Auburn, Calif., or EasySep® Positive Selection Cocktail, StemCell Technologies, Grenoble, France). The purity of CD14^+ cells was tested by CD14 staining and flow cytometry analysis (>90% CD14^+ cells). Monocyte-derived DCs (Mo-DCs) were generated supplementing the monocyte cultures with complete RPMI 1640 medium plus GM-CSF (800 UI/ml) and IL-4 (500 UI/ml) (both from Gentaur, Kampenhout, Belgium) at day 0 and day 3 of culture. For DC maturation, at day 5 iDCs were further stimulated for 48 h with 5 μg/ml LPS (Escherichia coli 055.B5, Sigma L2880, Copenhagen, Denmark).
Cell surface phenotypes were analyzed using the following monoclonal antibodies: FITC-conjugated anti-HLA-DR (Immu-357), FITC-conjugated anti-CD83 (HB15a), FITC-conjugated anti-CD14 (RMO52), PE-conjugated anti-CD40 (MAB89), PE-conjugated anti-CD1a (BL6), PE-conjugated anti-CD80 (MAB104), PE-conjugated anti-CD86 (HA5.2B7) (all from Beckman-Coulter), Alexa Fluor 488-conjugated anti-CCR7 (TG8/CCR7, Biolegend, San Diego, Calif.), and the respective isotype controls from the same commercial sources. After washing with PBS, cells were subsequently stained with 3 μl MoAb/10^5 cells in 100 μl of FACS buffer (PBS containing 1% BSA and 0.1% sodium azide) for 20 min at room temp. Stained cells were analysed using a FACScalibur (Becton Dickinson). Mo-DCs were gated according to forward scatter (FSC) and side scatter (SSC) parameters. The results were analysed using CellQuestPro software (Becton Dickinson).
Both the different C4BP isoforms (α7β1, α7β0 and α6β0), and Factor H were added at 2, 5 and 10 μg/ml throughout Mo-DC differentiation, maturation, or both. Namely, for the differentiation assays the proteins were added at day 0 and replenished at day 3. For the maturation assays the proteins were added at day 5, either alone or combined with LPS. Finally, for the differentiation plus maturation assays the proteins were added at days 0, 3 and 5 (at the last time point, combined with LPS).

The subject of a further data set is LPS-matured human Mo-DCs. Also on record: key: (−) negligible; (+) low; (++) moderate; (+++) high. As to conditions: cytokine; Vit D3-treated and LPS-induced DCs; data from Naranjo-Gomez et al. (2011); cited from earlier work.
A further data set deals with allogeneic CD3+ T cells. The data set can be described thus: Mixed leukocyte reaction ([3H]-thymidine incorporation). In kind it is cell-based, human. Also on record: key to Alloproliferation (T CD3^+): (−) negligible; (+) low; (++) moderate; (+++) high. Particulars: functional assay; treated and LPS-induced DCs. Here is the method:
CD3^+ T cells (10^5/well) and C4BP-treated (α7β1 and α7β0), or Factor H-treated, and LPS-activated Mo-DCs were seeded in a 96-well round-bottom plate at various DC:T cell ratios (1:40, 1:80 and 1:160) and cultured in X-VIVO 15 medium (Biowittaker, Walkersville, Md.) supplemented with 100 μg/ml of streptomycin, 100 IU/ml of penicillin and 2 mM L-glutamine (all from Invitrogen) plus 2% Human AB Serum. Allospecific proliferation was measured after 5 days of incubation. At day 4, the […] [^3H]-thymidine (1 μCi/well, Perkin Elmer, Boston, Mass.) was added, followed by incubation for another 16 h. Labeled cells were then harvested onto glass-fiber filters with a Filtermate Harvester (Packard, Meriden, Conn.), and the T cell proliferation rate was determined by the amount of [^3H]-thymidine incorporation, which was measured in a TopCount NXT counter (Packard). Results are reported as the mean cpm±SD of thymidine incorporation in quadruplicate culture wells.
For orientation: Incorporation of labelled thymidine or its analogues reports DNA synthesis.

The test system of data set [3] is human Mo-DCs. The data set can be described thus: Apoptosis determination (Annexin V / 7-ADD). The class given is cell-based. Also on record: key: (−) negligible; (+) low; (++) moderate; (+++) high. As to conditions: viability; treated and LPS-induced DCs. The text has this: Double staining using with the fluorescent dyes Annexin V (Annexin V-PE Apoptosis Detection Kit I, BD Pharmigen, San Diego, Calif.) and 7-amino-actinomycin D (7-ADD) (BD Pharmigen), and flow cytometry analysis, was employed to assess the viability/apoptosis status of C4BP α7β1-, C4BP α7β0-, recC4BP α6β0-, or Factor H-treated and untreated Mo-DCs.

Here are results for 1 molecule from patent publication US10106589B2, “Compositions and methods for immunomodulation” (FUNDACIO INSTITUT D'INVESTIGACIO BIOMEDICA DE BELLVITGE …, priority 2011, dated 2018).

For the molecule `C=C1/C(=C\C=C2/CCC[C@]3(C)[C@@H]([C@H](C)CCCC(C)(C)O)CC[C@@H]23)C[C@@H](O)C[C@@H]1O` [Vit D3, calcitriol, reference compound], the IDO result with human Mo-DCs [1] is “+++ (**)”. Further, in the data set with human Mo-DCs [2], the CCR7 entry is recorded as “++”, the CD1a entry was “−”, the CD14 result is “+” and the CD40 entry is reported as “+”. In the data set on human Mo-DCs [2], the CD83 result is “+”, the CD86 result is recorded as “−” and the HLA-DR result is given as “+”. Moreover, in the data set with LPS-matured human Mo-DCs, the IL-10 entry is “++ (*)” and the IL-12 entry was “− (*)”. In the data set with allogeneic CD3+ T cells, the “Alloproliferation (T CD3^+)” value is “−”. Also, the Apoptosis after treatment entry in the data set on human Mo-DCs [3] is listed as “+”.
